In the NIST ThermoML archive (doi:10.1016/j.jct.2018.02.018):
Numbers after ± are expanded uncertainties.

How the values were obtained:
[1] = xn = mol fraction of the nth substance listed; conditions: 100 kPa, Liquid; for speed of sound: Frequency=3 MHz, Single path-length method; for mass density: Vibrating tube method
[2] = refractive index (Na D-line) (dimensionless); xn = mol fraction of the nth substance listed; conditions: 100 kPa, Liquid, Standard Abbe refractometry

CN(C)CCOCCO [2-(2-dimethylaminoethoxy)ethanol] + C[S+](C)[O-]
Conditions	mass density, [1] [kg/m3]	refractive index, [2]	speed of sound, [1] [m/s]
293.15 K, x2 = 0	954 ± 4	1.442 ± 0.006	1403.6 ± 2.4
293.15 K, x2 = 0.0984	962 ± 4	1.444 ± 0.006	1410.5 ± 2.3
293.15 K, x2 = 0.2001	971 ± 4	1.447 ± 0.006	1417.2 ± 2.2
293.15 K, x2 = 0.2995	981 ± 4	1.449 ± 0.006	1423.8 ± 2.1
293.15 K, x2 = 0.4021	992 ± 4	1.452 ± 0.006	1431 ± 2
293.15 K, x2 = 0.4992	1003 ± 4	1.455 ± 0.006	1439.1 ± 1.9
293.15 K, x2 = 0.6003	1017 ± 4	1.458 ± 0.006	1448.2 ± 1.8
293.15 K, x2 = 0.7006	1033 ± 4	1.462 ± 0.006	1458.4 ± 1.7
293.15 K, x2 = 0.795	1051 ± 4	1.467 ± 0.006	1470.1 ± 1.6
293.15 K, x2 = 0.8997	1074 ± 4	1.472 ± 0.006	1485.1 ± 1.5
293.15 K, x2 = 0.9505	1087 ± 4	1.476 ± 0.006	1494.1 ± 1.5
303.15 K, x2 = 0	946 ± 4	1.438 ± 0.006	1369.9 ± 2.4
303.15 K, x2 = 0.0984	954 ± 4	1.44 ± 0.006	1377.3 ± 2.3
303.15 K, x2 = 0.2001	963 ± 4	1.443 ± 0.006	1384 ± 2.2
303.15 K, x2 = 0.2995	972 ± 4	1.445 ± 0.006	1390.2 ± 2.1
303.15 K, x2 = 0.4021	983 ± 4	1.448 ± 0.006	1397.7 ± 2
303.15 K, x2 = 0.4992	995 ± 4	1.451 ± 0.006	1405.5 ± 1.9
303.15 K, x2 = 0.6003	1008 ± 4	1.454 ± 0.006	1414.5 ± 1.8
303.15 K, x2 = 0.7006	1024 ± 4	1.458 ± 0.006	1425.1 ± 1.7
303.15 K, x2 = 0.795	1041 ± 4	1.462 ± 0.006	1436.6 ± 1.6
303.15 K, x2 = 0.8997	1064 ± 4	1.468 ± 0.006	1451.1 ± 1.5
303.15 K, x2 = 0.9505	1077 ± 4	1.471 ± 0.006	1460.6 ± 1.5
313.15 K, x2 = 0	938 ± 4	1.435 ± 0.006	1336.8 ± 2.4
313.15 K, x2 = 0.0984	946 ± 4	1.437 ± 0.006	1344.1 ± 2.3
313.15 K, x2 = 0.2001	954 ± 4	1.439 ± 0.006	1350.8 ± 2.2
313.15 K, x2 = 0.2995	964 ± 4	1.441 ± 0.006	1357.1 ± 2.1
313.15 K, x2 = 0.4021	975 ± 4	1.444 ± 0.006	1364.6 ± 2
313.15 K, x2 = 0.4992	986 ± 4	1.447 ± 0.006	1372.4 ± 1.9
313.15 K, x2 = 0.6003	999 ± 4	1.45 ± 0.006	1381.3 ± 1.8
313.15 K, x2 = 0.7006	1015 ± 4	1.454 ± 0.006	1391.4 ± 1.7
313.15 K, x2 = 0.795	1032 ± 4	1.458 ± 0.006	1403.2 ± 1.6
313.15 K, x2 = 0.8997	1054 ± 4	1.464 ± 0.006	1417.6 ± 1.5
313.15 K, x2 = 0.9505	1067 ± 4	1.467 ± 0.006	1427 ± 1.5
323.15 K, x2 = 0	930 ± 4	1.431 ± 0.006	1303.9 ± 2.4
323.15 K, x2 = 0.0984	937 ± 4	1.433 ± 0.006	1311.2 ± 2.3
323.15 K, x2 = 0.2001	946 ± 4	1.435 ± 0.006	1318 ± 2.2
323.15 K, x2 = 0.2995	955 ± 4	1.437 ± 0.006	1324.2 ± 2.1
323.15 K, x2 = 0.4021	966 ± 4	1.439 ± 0.006	1331.8 ± 2
323.15 K, x2 = 0.4992	977 ± 4	1.442 ± 0.006	1339.5 ± 1.9
323.15 K, x2 = 0.6003	991 ± 4	1.446 ± 0.006	1348.4 ± 1.8
323.15 K, x2 = 0.7006	1006 ± 4	1.45 ± 0.006	1358.4 ± 1.7
323.15 K, x2 = 0.795	1023 ± 4	1.454 ± 0.006	1370.1 ± 1.6
323.15 K, x2 = 0.8997	1045 ± 4	1.459 ± 0.006	1384.4 ± 1.5
323.15 K, x2 = 0.9505	1057 ± 4	1.461 ± 0.006	1393.6 ± 1.5

NCCO [2-aminoethan-1-ol] + C[S+](C)[O-]
Conditions	mass density, [1] [kg/m3]	refractive index, [2]	speed of sound, [1] [m/s]
293.15 K, x2 = 0	1016 ± 4	1.455 ± 0.006	1734.2 ± 1.7
293.15 K, x2 = 0.1026	1026 ± 4	1.457 ± 0.006	1701.8 ± 1.7
293.15 K, x2 = 0.2008	1035 ± 4	1.46 ± 0.006	1672.3 ± 1.6
293.15 K, x2 = 0.2981	1043 ± 4	1.462 ± 0.006	1645.9 ± 1.6
293.15 K, x2 = 0.3966	1051 ± 4	1.465 ± 0.006	1619.8 ± 1.6
293.15 K, x2 = 0.4933	1059 ± 4	1.467 ± 0.006	1595.4 ± 1.6
293.15 K, x2 = 0.6021	1068 ± 4	1.469 ± 0.006	1571.2 ± 1.5
293.15 K, x2 = 0.6969	1076 ± 4	1.472 ± 0.006	1550.6 ± 1.5
293.15 K, x2 = 0.7998	1083 ± 4	1.474 ± 0.006	1533.3 ± 1.5
293.15 K, x2 = 0.9005	1092 ± 4	1.476 ± 0.006	1517.8 ± 1.5
303.15 K, x2 = 0	1008 ± 4	1.451 ± 0.006	1702.2 ± 1.7
303.15 K, x2 = 0.1026	1017 ± 4	1.454 ± 0.006	1669.2 ± 1.7
303.15 K, x2 = 0.2008	1026 ± 4	1.455 ± 0.006	1639.1 ± 1.6
303.15 K, x2 = 0.2981	1034 ± 4	1.458 ± 0.006	1611.9 ± 1.6
303.15 K, x2 = 0.3966	1042 ± 4	1.46 ± 0.006	1585.5 ± 1.6
303.15 K, x2 = 0.4933	1050 ± 4	1.463 ± 0.006	1561.2 ± 1.6
303.15 K, x2 = 0.6021	1058 ± 4	1.465 ± 0.006	1537 ± 1.5
303.15 K, x2 = 0.6969	1066 ± 4	1.467 ± 0.006	1516.6 ± 1.5
303.15 K, x2 = 0.7998	1074 ± 4	1.469 ± 0.006	1499 ± 1.5
303.15 K, x2 = 0.9005	1082 ± 4	1.472 ± 0.006	1484 ± 1.5
313.15 K, x2 = 0	1000 ± 4	1.447 ± 0.006	1669.4 ± 1.7
313.15 K, x2 = 0.1026	1009 ± 4	1.45 ± 0.006	1636.3 ± 1.7
313.15 K, x2 = 0.2008	1017 ± 4	1.452 ± 0.006	1605.3 ± 1.7
313.15 K, x2 = 0.2981	1025 ± 4	1.454 ± 0.006	1578.3 ± 1.6
313.15 K, x2 = 0.3966	1033 ± 4	1.456 ± 0.006	1551.7 ± 1.6
313.15 K, x2 = 0.4933	1041 ± 4	1.458 ± 0.006	1527.2 ± 1.6
313.15 K, x2 = 0.6021	1049 ± 4	1.461 ± 0.006	1503 ± 1.5
313.15 K, x2 = 0.6969	1057 ± 4	1.463 ± 0.006	1483.1 ± 1.5
313.15 K, x2 = 0.7998	1064 ± 4	1.465 ± 0.006	1465.2 ± 1.5
313.15 K, x2 = 0.9005	1072 ± 4	1.468 ± 0.006	1449.9 ± 1.5
323.15 K, x2 = 0	992 ± 4	1.443 ± 0.006	1637.3 ± 1.7
323.15 K, x2 = 0.1026	1001 ± 4	1.446 ± 0.006	1603.2 ± 1.7
323.15 K, x2 = 0.2008	1009 ± 4	1.449 ± 0.006	1571.9 ± 1.7
323.15 K, x2 = 0.2981	1017 ± 4	1.45 ± 0.006	1544.7 ± 1.6
323.15 K, x2 = 0.3966	1024 ± 4	1.452 ± 0.006	1517.9 ± 1.6
323.15 K, x2 = 0.4933	1031 ± 4	1.454 ± 0.006	1493.4 ± 1.6
323.15 K, x2 = 0.6021	1039 ± 4	1.457 ± 0.006	1469.3 ± 1.5
323.15 K, x2 = 0.6969	1047 ± 4	1.459 ± 0.006	1449.4 ± 1.5
323.15 K, x2 = 0.7998	1054 ± 4	1.461 ± 0.006	1431.7 ± 1.5
323.15 K, x2 = 0.9005	1062 ± 4	1.463 ± 0.006	1416.4 ± 1.5
